Experimental data as given in patent US20210260022A1, “SYNERGY FOR INCREASING ENERGY EXPENDITURE AND INSULIN SENSITIVITY” (The Board of Supervisors of Louisiana State University and …, priority 2018, published 2021).
Entries after “also recorded” stand apart in the source; their conditions may differ. Like-named read-outs stand apart in the source and are kept apart here.

Key:
[1] = test system: human adipocytes; test: Western blotting of protein levels in treated human adipocytes; format: cell-based
Experimental: Referring to FIG. 2, human adipocyte cultures were treated with naringenin for 0, 3 or 7d. Total protein was isolated and analyzed by Western Blotting. […] TGX SDS-PAGE gels (7.5%TM, BioRad) were used to separate 50 μg of solubilized protein per sample. Following transfer, nitrocellulose membranes were probed overnight at 4° C. with primary monoclonal antibodies against adiponectin, NAMPT, and PPARγ (Santa Cruz), PGC-1α monoclonal (4C1.3, EMDmillipore) and β-Actin (A5316, Sigma). HRP-linked anti-rabbit (12-348, Sigma) and anti-mouse (A[…], Sigma) were used to detect specific antibody-antigen complexes. Proteins were visualized by chemiluminescence (Western Lightning Plus-ECL, PerkinElmer, Waltham, Mass.). Bands were quantified using ImageJ software and values shown are normalized to β-actin.

[2] = test system: human adipocytes; test: Oxygen consumption rate in human adipocytes, Seahorse XF24; format: cell-based; conditions: treated for 7d
Experimental: Referring to FIG. 3, oxygen consumption rate in human adipocytes after Naringenin treatment. Cells were treated for 7d and OCR was measured using a Seahorse XF24. Rosiglitizone and GW7647 (activators of PPARγ and PPARα) were included as positive controls.

[3] = Eight-week case study of naringenin 150 mg three times daily in a subject with diabetes; format: in vivo, human
Experimental: A subject was recruited. […] The subject met the inclusion criteria of fasting blood glucose between 126 and 200 mg/dL. They had been prescribed metformin but had discontinued the medication due to gastrointestinal intolerance. Exclusion criteria consisted of known allergy to citrus fruit. The study was approved by the Pennington Biomedical Research Center (PBRC) Institutional Review Board. The participant provided written informed consent. Procedures were in accordance with PBRC's ethical standards. We conducted an eight-week case study. The subject completed three visits to the clinic. Visits were performed in the morning after an overnight fast for at least eight hours where only water was permitted. At the baseline visit, upon arrival, weight and vital signs (blood pressure and heart rate) were measured. […] Blood was collected for a chemistry panel (glucose, insulin, creatinine, potassium, uric acid, albumin, calcium, magnesium, creatine phosphokinase, alanine aminotransferase, alkaline phosphatase, iron, total cholesterol high density lipoprotein cholesterol [HDL-C], low density lipoprotein cholesterol [LDL-C], and triglycerides) and a complete blood count (CBC). Resting metabolic rate (RMR) was measured over five hours at baseline and at the end of eight weeks using the ventilated hood to collect expirated gases. The test required the subject to lie quietly in bed after ingesting a capsule containing 150 mg naringenin. To evaluate the subject's metabolic rate, oxygen consumed and the carbon dioxide given off were measured during the last thirty minutes of each hour. Following the baseline testing, the subject was given 100 capsules each containing 150 mg naringenin with instructions to take one orally three times daily. At weeks two and six, the subject received a phone call from the study coordinator and was asked about their progress and compliance. Changes in medications and adverse events were also evaluated. They were encouraged to comply with the study protocol. At week four, the subject returned to the clinic and their weight, blood pressure, and heart rate were measured. Any remaining capsules were collected and compliance was assessed. Naringenin (100 capsules) for the next four weeks was dispensed. Week eight marked the subject's last visit and involved repeating the baseline testing. At this visit, the subject returned any remaining capsules, and compliance was assessed. Whole sweet oranges (Citrus Sinensis) were subjected to an aqueous and ethanolic extraction process, dried, milled, and provided in a powder form by Green Chem/Gencor Lifestage Solutions (Irvine, Calif.). The quantification of naringenin in the extract, and the safety and pharmacokinetics of the extract in humans are previously described.^15 The extract contained 28% naringenin. Therefore each capsule prepared by the PBRC pharmacist contained 536 mg of the extract.

[4] = cited from earlier work
[5] = test system: ovariectomized mice; conditions: cited from earlier work
[6] = test system: cytochrome P450 enzymes; conditions: in vivo studies in humans; cited from earlier work
[7] = cell culture and animal studies; cited from earlier work

O=C1C[C@@H](c2ccc(O)cc2)Oc2cc(O)cc(O)c21 [naringenin]
protein levels of UCP1, GLUT4, and ChREBP ([1]; 10 μM naringenin for 7 days): Corresponding increases | AMPK activation (phospho-AMPK) ([1]; naringenin 0, 3 or 7d): activates AMPK | oxygen consumption rate: basal and maximal energy expenditure [2]: significantly increases basal and maximal energy expenditure | oxygen consumption rate: basal and maximal energy expenditure ([2]; listed as Naringenin): increase in oxygen consumption | loss of body weight ([3]; 150 mg three times a day, in 8 weeks): 2.3% | reduction in HOMA-IR ([3]; absolute, eight weeks vs baseline): 0.6 | maximal respiratory quotient increase above baseline ([3]; at one hour): 1.2% | RMR peak above baseline ([3]; at one hour, after eight weeks): 3.5% | triglycerides after eight weeks ([3]; baseline 53 mg/dL): 70 mg/day | HOMA-IR at the end of the study ([3]; baseline 3.4): 2.8 | Low density lipoprotein cholesterol decrease ([3]; calculated with the Friedewald equation): 10.3 mg/dL | adverse events ([3]; eight weeks): No adverse events were reported | blood safety markers ([3]; eight weeks): within their reference ranges; also recorded: no clinically significant changes | change in respiratory quotient ([3]; eight weeks): no change; also recorded: did not change | HOMA-IR reduction ([3]; eight weeks vs baseline): 17.6% | change in glucose ([3]; eight weeks vs baseline): not clinically significant | triglycerides increase ([3]; eight weeks vs baseline 53 mg/dL): 32% | loss of body weight at the 6 month plateau ([3]; extrapolated from 8 weeks): 4.6% | Body weight decrease ([3]; over eight weeks, vs baseline): 2.3 kg | serum concentrations of naringenin ([4]; after orange juice and fruit): < 1 μm | presence in serum ([4]; lowest dose of 150 mg): present in serum at concentrations sufficient to elicit a physiologic response | physiologically attainable concentration ([4]; pharmacokinetic studies in humans): 10 μM | adverse events ([4]; single ascending dose trial of whole orange extract): no adverse events were observed at any dose | weight gain, glucose metabolism and muscle function ([5]; ovariectomized mice fed a high fat diet): reversed the weight gain and improved glucose metabolism and muscle function | fasting glucose, insulin (and cholesterol) levels ([5]; ovariectomized mice): improved fasting glucose, insulin and cholesterol levels | weight gain caused by ovariectomy ([5]; ovariectomized mice): prevented the weight gain | inhibition of cytochrome P450 enzymes [6]: not the main inhibitory compound in grapefruit | concentration needed to elicit a physiologic response [7]: 1-200 μm
